From patent publication US11596611B2, “Hepatitis B antiviral agents” (ENANTA PHARMACEUTICALS, INC., priority 2017, dated 2023)

Assays:
[1] = Compound toxicity by ATPLite (total ATP levels); type: cell-based; settings: human, three days after compound addition, 50% reduction of total ATP
Protocol: Methods: HepAD38 cells are maintained as previously reported (Ladner et al, Antimicrob. Agents Chemother. 1997, […], 1715). Briefly, cells are passaged upon attaining confluency in DMEM/F12 media in the presence of 10% FBS, Penn/Strep, 250 μg/mL G418, and 1 ug/ml tetracycline. Novel compounds are screened by first washing cells three times with PBS to remove tetracycline, and plating in 96 well plates at 35,000 cells/well. Compounds dissolved in DMSO are then diluted 1:200 into wells containing cells. Five days after compound addition, material is harvested for analysis. For an extended 8 days analysis, cells are plated and treated as described above, but media and compound are refreshed on d2 and d5 post initial treatment.
Compound toxicity is evaluated by seeding cells at 15,000 cells/well and treating with compound as described above.

HBV = assay: HepAD38 antiviral assay: reduction of viral product accumulation (virion DNA by qPCR, HBsAg or HBeAg by ELISA); type: cell-based, hepatitis B virus; settings: Hepatitis B virus, 120 h; HepAD38 cells, five days after compound addition; 50% reduction of viral product vs no drug controls; read-out: HepAD38 EC50
In short: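 Readouts were qPCR of lysed virion DNA plus ELISA for HBsAg or HBeAg, samples diluted into linear range. HepAD38 cells, washed free of tetracycline, received compound diluted 1:200 from DMSO for 5 days; 8-day variant refreshed media and compound on days 2 and 5.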

Structure (SMILES) | CC50 at 3 days ([1]; numeric bounds) [µM] | EC50 (HBV) [µM] | CC50 at 3 days ([1]; class symbols) [µM]
C[C@H](O)COC[C@]1(O)C2CCC1C[C@@H](S(=O)(=O)c1cc(C(=O)Nc3ccc(F)c(F)c3)ccc1Cl)C2 [Example 176] | > 6.25 | < 0.104 | –
C[C@@H](O)COC[C@]1(O)C2CCC1C[C@@H](S(=O)(=O)c1cc(C(=O)Nc3ccc(F)c(F)c3)ccc1Cl)C2 [Example 177] | > 6.25 | < 0.104 | –
C[C@@H](O)[C@H](O)COC[C@]1(O)C2CCC1C[C@@H](S(=O)(=O)c1cc(C(=O)Nc3ccc(F)c(F)c3)ccc1Cl)C2 [Example 178] | – | < 0.104 | > 25
C[C@H](O)[C@@H](O)COC[C@]1(O)C2CCC1C[C@@H](S(=O)(=O)c1cc(C(=O)Nc3ccc(F)c(F)c3)ccc1Cl)C2 [Example 179] | – | < 0.104 | > 25
C[C@H](O)CNC(=O)C[C@]1(O)C2CCC1C[C@@H](S(=O)(=O)c1cc(C(=O)Nc3ccc(F)c(F)c3)ccc1Cl)C2 [Example 185] | > 12.5 | < 0.104 | –
C[C@@H](O)CNC(=O)C[C@]1(O)C2CCC1C[C@@H](S(=O)(=O)c1cc(C(=O)Nc3ccc(F)c(F)c3)ccc1Cl)C2 [Example 186] | > 12.5 | < 0.104 | –
CC(C)(O)CNC(=O)C[C@]1(O)C2CCC1C[C@@H](S(=O)(=O)c1cc(C(=O)Nc3ccc(F)c(F)c3)ccc1Cl)C2 [Example 187] | > 12.5 | < 0.104 | –
CO[C@@H](C)CNC(=O)C[C@]1(O)C2CCC1C[C@@H](S(=O)(=O)c1cc(C(=O)Nc3ccc(F)c(F)c3)ccc1Cl)C2 [Example 188] | > 12.5 | < 0.104 | –
CO[C@H](C)CNC(=O)C[C@]1(O)C2CCC1C[C@@H](S(=O)(=O)c1cc(C(=O)Nc3ccc(F)c(F)c3)ccc1Cl)C2 [Example 189] | > 12.5 | < 0.104 | –
COC(C)(C)CNC(=O)C[C@]1(O)C2CCC1C[C@@H](S(=O)(=O)c1cc(C(=O)Nc3ccc(F)c(F)c3)ccc1Cl)C2 [Example 191] | – | < 0.104 | > 25
O=C(C[C@]1(O)C2CCC1C[C@@H](S(=O)(=O)c1cc(C(=O)Nc3ccc(F)c(F)c3)ccc1Cl)C2)NC1CC(O)C1 (some centres unmarked) [Example 192] | > 12.5 | < 0.104 | –
CC(C)(O)C[C@@]1(O)C2CC[C@H]1C[C@H](S(=O)(=O)c1cc(C(=O)Nc3ccc(F)c(F)c3)ccc1Cl)C2 [Example 193] | – | < 0.104 | > 25
CC(=O)C[C@@]1(O)C2CC[C@H]1C[C@H](S(=O)(=O)c1cc(C(=O)Nc3ccc(F)c(F)c3)ccc1Cl)C2 [Example 215] | – | < 0.104 | > 25
CC(O)C[C@@]1(O)C2CC[C@H]1C[C@H](S(=O)(=O)c1cc(C(=O)Nc3ccc(F)c(F)c3)ccc1Cl)C2 (some centres unmarked) [Example 218] | – | < 0.104 | 10 to 25
[2H]C1([2H])C2C[C@]([2H])(S(=O)(=O)c3cc(C(=O)Nc4ccc(F)c(F)c4)ccc3Cl)CC(C1([2H])[2H])[C@]2(O)CO [Example 272] | – | < 0.104 | > 25
[2H]C1([2H])C2CCC(C([2H])([2H])[C@]1([2H])S(=O)(=O)c1cc(C(=O)Nc3ccc(F)c(F)c3)ccc1Cl)[C@@]2(O)CO [Example 279] | – | < 0.104 | > 25
Cn1cc(C(O)[C@]2(O)C3CCC2C[C@@H](S(=O)(=O)c2cc(C(=O)Nc4ccc(F)c(F)c4)ccc2Cl)C3)cn1 (some centres unmarked) [Example 289] | – | < 0.104 | > 25

Structure (SMILES) | CC50 at 3 days ([1]; numeric bounds) [µM] | EC50 (HBV) [µM] | CC50 at 3 days ([1]; class symbols) [µM]
O=C(Nc1ccc(F)c(F)c1)c1ccc(Cl)c(S(=O)(=O)[C@H]2CC3CCC(C2)[C@]3(O)C(O)c2ncco2)c1 (some centres unmarked) [Example 290] | – | < 0.104 | > 25
O=C(Nc1ccc(F)c(F)c1)c1ccc(Cl)c(S(=O)(=O)[C@H]2CC3CCC(C2)[C@]3(O)C(O)c2ccc(F)cn2)c1 (some centres unmarked) [Example 291] | – | < 0.104 | > 25
Cc1cccc(C(O)[C@@]2(O)C3CC[C@H]2C[C@H](S(=O)(=O)c2cc(C(=O)Nc4ccc(F)c(F)c4)ccc2Cl)C3)n1 (some centres unmarked) [Example 294] | – | < 0.104 | > 25
Cc1ccnc(C(O)[C@@]2(O)C3CC[C@H]2C[C@H](S(=O)(=O)c2cc(C(=O)Nc4ccc(F)c(F)c4)ccc2Cl)C3)c1 (some centres unmarked) [Example 296] | – | < 0.104 | > 25
O=C(Nc1ccc(F)c(F)c1)c1ccc(Cl)c(S(=O)(=O)[C@@H]2CC3CC[C@@H](C2)[C@@]3(O)C(O)c2nccs2)c1 (some centres unmarked) [Example 302] | – | < 0.104 | > 25
O=C(Nc1ccc(F)c(F)c1)c1ccc(Cl)c(S(=O)(=O)[C@@H]2CC3CC[C@@H](C2)[C@@]3(O)C(O)c2cnoc2)c1 (some centres unmarked) [Example 303] | – | < 0.104 | > 25
O=C(Nc1ccc(F)c(F)c1)c1ccc(Cl)c(S(=O)(=O)[C@H]2CC3CCC(C2)[C@]3(O)C2CO2)c1 (some centres unmarked) [Example 308] | – | < 0.104 | > 25
O=C(Nc1ccc(F)c(F)c1)c1ccc(Cl)c(S(=O)(=O)[C@H]2CC3CCC(C2)[C@]3(O)C(O)Cc2ccncc2)c1 (some centres unmarked) [Example 317] | – | < 0.104 | > 25
O=C(Nc1ccc(F)c(F)c1)c1ccc(Cl)c(S(=O)(=O)[C@H]2CC3CCC(C2)[C@]3(O)C(O)Cc2ccccn2)c1 (some centres unmarked) [Example 319] | – | < 0.104 | > 25
O=C(Nc1ccc(F)c(F)c1)c1ccc(F)c(S(=O)(=O)[C@@H]2CC3CC[C@@H](C2)[C@@]3(O)CO)c1 [Example 325] | – | < 0.104 | > 25
COC(=O)[C@H]1O[C@@H](OC[C@@]2(O)C3CC[C@H]2C[C@H](S(=O)(=O)c2cc(C(=O)Nc4ccc(F)c(F)c4)ccc2Cl)C3)[C@H](OC(C)=O)[C@@H](OC(C)=O)[C@@H]1OC(C)=O [Example 329] | – | < 0.104 | > 25
CC(=O)[C@@H](O)[C@@]1(O)C2CC[C@H]1C[C@H](S(=O)(=O)c1cc(C(=O)Nc3ccc(F)c(F)c3)ccc1Cl)C2 [Example 331] | – | < 0.104 | > 25
CC(C)(O)[C@@H](O)[C@@]1(O)C2CC[C@H]1C[C@H](S(=O)(=O)c1cc(C(=O)Nc3ccc(F)c(F)c3)ccc1Cl)C2 [Example 332] | – | < 0.104 | > 25
Cc1cc(Cl)c(S(=O)(=O)[C@H]2CC3CCC(C2)[C@]3(O)[C@H](O)[C@H](C)O)cc1C(=O)Nc1ccc(F)c(F)c1 [Example 335] | – | < 0.104 | > 25
[2H]c1cc(F)c(F)c([2H])c1NC(=O)c1ccc(Cl)c(S(=O)(=O)[C@@H]2C([2H])([2H])C3CC[C@@H](C2([2H])[2H])[C@@]3(O)[C@@H](O)[C@H](C)O)c1 [Example 338] | – | < 0.104 | > 25
C[C@@H]1CN([C@H]2C3CCC2C[C@H](S(=O)(=O)c2cc(C(=O)Nc4ccc(F)c(F)c4)ccc2Cl)C3)C(=O)O1 [Example 344] | – | < 0.104 | > 25
C[C@H](O)C(=O)[C@]1(O)C2CCC1C[C@@H](S(=O)(=O)c1cc(C(=O)Nc3ccc(F)c(F)c3)ccc1Cl)C2 [Example 345] | – | < 0.104 | > 25
